From PubChem BioAssay AID330 (DTP/NCI, 2004) come the findings set out here.

Several values for one entry are separate records, joined by “and”; a condition that tells them apart may be missing. Equal values may be shown once. Inconclusive results and toxic doses are left out.

The assay deals with P388 leukemia ip, CD2F1 mice, survival T/C. Put plainly: NCI In Vivo Anticancer Drug Screen. Data for tumor model P388 Leukemia (intraperitoneal) in CD2F1 (CDF1) mice. As to conditions: endpoint: median survival time, higher = longer survival. An outline of the steps:
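Mice carrying the transplanted tumor received test compound or vehicle. Survival was recorded in each group, and the value is the treated-group measurement divided by that of the vehicle-treated control group.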

Where [1] appears, read: dose: 50.0 mg/kg/injection, schedule: Q01DX009 (ip), vehicle: saline.
Setting [2] is: dose: 50.0 mg/kg/injection, schedule: Q01DX009 (ip), vehicle: Klucel (hydroxypropylcellulose) (HPC).
Where [3] appears, read: dose: 100.0 mg/kg/injection, schedule: Q01DX009 (ip), vehicle: Klucel (hydroxypropylcellulose) (HPC).
Where [4] appears, read: dose: 50.0 mg/kg/injection, schedule: Q01DX009 (ip), vehicle: saline with Tween-80.
Setting [5] is: dose: 200.0 mg/kg/injection, schedule: Q01DX009 (ip), vehicle: saline with Tween-80.

Regarding `CCOC(=O)C1=C(C)NC(=O)NC1c1ccc(C)cc1` (configuration not stated), the T/C is, setting by setting: (dose: 100.0 mg/kg/injection, schedule: Q04DX003 (ip), vehicle: saline with Tween-80) 100 % of control; (dose: 200.0 mg/kg/injection, schedule: Q04DX003 (ip), vehicle: saline with Tween-80) 95 % of control; (dose: 400.0 mg/kg/injection, schedule: Q04DX003 (ip), vehicle: saline with Tween-80) 100 % of control.

On to `O=C=C=O`, for which the T/C (dose: 1:2.0 dilution, schedule: Q01DX001 (ip), vehicle: none) was 102 % of control; the T/C (dose: 1:4.0 dilution, schedule: Q01DX001 (ip), vehicle: none) was 104 % of control; the T/C (dose: 1:8.0 dilution, schedule: Q01DX001 (ip), vehicle: none) was 99 % of control.

In the case of `CCN(CC)CCOC(=O)C(C)Oc1c2ccoc2c(OC)c2oc(C)cc(=O)c12` (configuration not stated), the T/C (dose: 50.0 mg/kg/injection, schedule: Q01DX005 (ip), vehicle: saline) is 102 % of control; the T/C (dose: 100.0 mg/kg/injection, schedule: Q01DX005 (ip), vehicle: saline) was 106 % of control; the T/C (dose: 200.0 mg/kg/injection, schedule: Q01DX005 (ip), vehicle: saline) was 101 % of control.

Take `COc1ccc(N2CCCSC2=S)cc1`: the T/C was 101 % of control (dose: 50.0 mg/kg/injection, schedule: Q01DX005 (ip), vehicle: saline + Tween-80 + alcohol); 101 % of control (dose: 100.0 mg/kg/injection, schedule: Q01DX005 (ip), vehicle: saline + Tween-80 + alcohol); 100 % of control (dose: 200.0 mg/kg/injection, schedule: Q01DX005 (ip), vehicle: saline + Tween-80 + alcohol).

As to `COc1ccc2[nH]c3c(C)c4cc[n+](C)cc4c(C)c3c2c1`, the T/C by setting is: (dose: 3.13 mg/kg/injection, schedule: Q01DX009 (ip), vehicle: saline) 153 % of control; (dose: 6.25 mg/kg/injection, schedule: Q01DX009 (ip), vehicle: saline) 100 % of control.

Turning to `c1ccc(CCc2ccnc3c2ccc2ccccc23)cc1`, the T/C by setting is: (dose: 25.0 mg/kg/injection, schedule: Q04DX003 (ip), vehicle: Klucel (hydroxypropylcellulose) (HPC)) 112 % of control; (dose: 50.0 mg/kg/injection, schedule: Q04DX003 (ip), vehicle: Klucel (hydroxypropylcellulose) (HPC)) 99 % of control; (dose: 100.0 mg/kg/injection, schedule: Q04DX003 (ip), vehicle: Klucel (hydroxypropylcellulose) (HPC)) 99 % of control.

In the case of `CC(=O)N(C)c1ccc(NC(=O)Nc2cc(C)ccc2C)cc1`, the T/C is, setting by setting: under setting [1], 91 % of control; (dose: 100.0 mg/kg/injection, schedule: Q01DX009 (ip), vehicle: saline) 88 % of control.

With `Cc1ccc(S(=O)(=O)N2CC3CC(C2)C(=O)NC3=O)cc1`, the T/C is 104 % of control under setting [2]; 107 % of control under setting [3]; 92 % of control (dose: 200.0 mg/kg/injection, schedule: Q01DX009 (ip), vehicle: Klucel (hydroxypropylcellulose) (HPC)).

Turning to `COc1cccc2c1C(=O)c1c(O)c3c(c(O)c1C2=O)C[C@@](O)(/C(C)=N/NC(=O)c1ccc(Cl)cc1)C[C@@H]3OC1CC(N)C(O)C(C)O1` (some centres not stated), the T/C is, setting by setting: (dose: 0.12 mg/kg/injection, schedule: Q01DX009 (ip), vehicle: water) 110 % of control; (dose: 0.5 mg/kg/injection, schedule: Q01DX009 (ip), vehicle: water) 155 % of control; (dose: 1.0 mg/kg/injection, schedule: Q01DX009 (ip), vehicle: water) 180 % of control; (dose: 2.0 mg/kg/injection, schedule: Q01DX009 (ip), vehicle: water) 161 % of control and 166 % of control; (dose: 4.0 mg/kg/injection, schedule: Q01DX009 (ip), vehicle: water) 211 % of control; (dose: 5.0 mg/kg/injection, schedule: Q01DX001 (ip), vehicle: water) 181 % of control. In addition, the T/C runs as follows: (dose: 8.0 mg/kg/injection, schedule: Q01DX009 (ip), vehicle: water) 109 % of control; (dose: 10.0 mg/kg/injection, schedule: Q01DX001 (ip), vehicle: water) 192 % of control; (dose: 20.0 mg/kg/injection, schedule: Q01DX001 (ip), vehicle: water) 108 % of control.

As to `CC(C)c1ccc(C(Cc2ccccc2)N(CCO)CCO)cc1` (configuration not stated), the T/C is 105 % of control (dose: 12.5 mg/kg/injection, schedule: Q01DX005 (ip), vehicle: Klucel (hydroxypropylcellulose) (HPC)); 104 % of control (dose: 25.0 mg/kg/injection, schedule: Q01DX005 (ip), vehicle: Klucel (hydroxypropylcellulose) (HPC)); 99 % of control and 91 % of control (dose: 50.0 mg/kg/injection, schedule: Q01DX005 (ip), vehicle: Klucel (hydroxypropylcellulose) (HPC)).

As for `O=[N+]([O-])c1ccc([Se]CCO)c([N+](=O)[O-])c1`, the T/C by setting is: under setting [2], 101 % of control; under setting [3], 99 % of control.

For the compound `Cc1ccc(-c2c(C)c3c(c(C)c2-c2ccc(C)cc2)-c2ccccc2C3=O)cc1`, the T/C was 100 % of control (dose: 100.0 mg/kg/injection, schedule: Q04DX002 (ip), vehicle: saline) and 95 % of control (dose: 200.0 mg/kg/injection, schedule: Q04DX002 (ip), vehicle: saline).

With `CC(=O)NC(CCO)C(N)=O` (configuration not stated), the T/C was 99 % of control and 100 % of control (dose: 12.5 mg/kg/injection, schedule: Q01DX009 (ip), vehicle: water); 106 % of control (dose: 25.0 mg/kg/injection, schedule: Q01DX009 (ip), vehicle: water); 107 % of control and 120 % of control (dose: 50.0 mg/kg/injection, schedule: Q01DX009 (ip), vehicle: water); 111 % of control and 94 % of control (dose: 100.0 mg/kg/injection, schedule: Q01DX009 (ip), vehicle: water); 100 % of control and 101 % of control (dose: 200.0 mg/kg/injection, schedule: Q01DX009 (ip), vehicle: water).

With `CC(=O)C1C(=O)C(=O)N(c2ccc(O)c(C(=O)O)c2)C1=O` (configuration not stated), the T/C reads like this: (dose: 100.0 mg/kg/injection, schedule: Q04DX002 (ip), vehicle: saline with Tween-80) 100 % of control; (dose: 200.0 mg/kg/injection, schedule: Q04DX002 (ip), vehicle: saline with Tween-80) 94 % of control; (dose: 400.0 mg/kg/injection, schedule: Q04DX002 (ip), vehicle: saline with Tween-80) 93 % of control.

As for `CC[N+](CC)(CC)Cc1ccccc1`, the T/C reads like this: (dose: 6.25 mg/kg/injection, schedule: Q04DX003 (ip), vehicle: saline sonified) 109 % of control; (dose: 12.5 mg/kg/injection, schedule: Q04DX003 (ip), vehicle: saline sonified) 109 % of control; (dose: 25.0 mg/kg/injection, schedule: Q04DX003 (ip), vehicle: saline sonified) 109 % of control.

`CCc1c(C(=O)OC)c(C(=O)OC)c(-c2ccccc2)n1CCn1c(CC)c(C(=O)OC)c(C(=O)OC)c1-c1ccccc1`: the T/C is 96 % of control (dose: 60.0 mg/kg/injection, schedule: Q01DX005 (ip), vehicle: Klucel (hydroxypropylcellulose) (HPC)); 91 % of control (dose: 120.0 mg/kg/injection, schedule: Q01DX005 (ip), vehicle: Klucel (hydroxypropylcellulose) (HPC)); 93 % of control (dose: 240.0 mg/kg/injection, schedule: Q01DX005 (ip), vehicle: Klucel (hydroxypropylcellulose) (HPC)).

In the case of `CC(C)=C(C#N)NC(C)(C)C`, the T/C reads like this: (dose: 12.5 mg/kg/injection, schedule: Q01DX009 (ip), vehicle: saline) 101 % of control; (dose: 25.0 mg/kg/injection, schedule: Q01DX009 (ip), vehicle: saline) 100 % of control; under setting [1], 98 % of control and 94 % of control.

Turning to `O=C1c2ccc[n+]3c2-c2c1ccc[n+]2CC3`, the T/C by setting is: (dose: 12.5 mg/kg/injection, schedule: Q01DX001 (ip), vehicle: saline) 108 % of control; (dose: 25.0 mg/kg/injection, schedule: Q01DX001 (ip), vehicle: saline) 115 % of control; (dose: 50.0 mg/kg/injection, schedule: Q01DX001 (ip), vehicle: saline) 101 % of control.

Take `O=C1CCCCCC1Cc1cc(O)c(CC2CCCCCC2=O)cc1O` (configuration not stated): the T/C is 96 % of control (dose: 25.0 mg/kg/injection, schedule: Q01DX009 (ip), vehicle: saline with Tween-80); 93 % of control under setting [4]; 98 % of control (dose: 100.0 mg/kg/injection, schedule: Q01DX009 (ip), vehicle: saline with Tween-80); 94 % of control under setting [5].

Consider `CC(Nc1ccc(Br)cc1[N+](=O)[O-])C(=O)O` (configuration not stated), for which the T/C is, setting by setting: under setting [4], 110 % of control; under setting [5], 100 % of control.

As to `O=C(NC(Cc1ccccc1)C(=O)O)c1ccc([N+](=O)[O-])cc1` (configuration not stated), the T/C is, setting by setting: (dose: 25.0 mg/kg/injection, schedule: Q01DX009 (ip), vehicle: other) 97 % of control; (dose: 50.0 mg/kg/injection, schedule: Q01DX009 (ip), vehicle: other) 89 % of control; (dose: 100.0 mg/kg/injection, schedule: Q01DX009 (ip), vehicle: other) 104 % of control.
